# How the values were obtained:
# [1] = test system: central nervous system; settings: prior art compound; cited from earlier work
# [2] = test system: central nervous system; assay: Stereotypic behavior reactions in rats; assay type: in vivo, white rat males; settings: Rattus norvegicus, 1 h, dose causing stereotypic behavior reactions in 50% of rats one hour after administration, Litchfield and Wilkoxson method, read-out: ED50 (stereotypy)
# Description: (§1) Psychostimulating activity of the compounds according to the present invention has been tested in experiments with mice and rats.
# (§2) The experiments are performed with white male mice with a weight of 18-20 g and with white rat males with a weight of 120 to 140 g with the account of parameters characterising the influence of the compounds according to the present invention on the central nervous system as well as toxicity. Following this objective, there have been studied:
# (2) capability of the compounds of inducing sterotypic behavior reactions;
# (§3) To quantitatively evaluate the central stimulant activity of the compounds in the tests on mice the values of ED200 (locomotion) are determined, i.e. doses in which the compounds cause a two-fold potentiation of locomotory activity of the animals; in the tests performed with rats there are determined values of ED50 (stereotypy), i.e. doses in which the compounds, one hour after their administration, cause, in 50% of the test rats, stereotypic behavior reactions (ED50 doses are calculated by the Litchfield and Wilkoxsons method).
# (§4) The compounds according to the present invention are sparingly soluble in water. They were administered to the animals in the form of a suspension prepared with the use of a 1% solution of carboxymethylcellulose with the addition of Tween-80® as an emulsifying agent. Since molecular weights of the test compounds differ from each other, their doses are calculated in mcM/kg.
# (§5) In a special series of experiments there has been made a quantitative comparison of the central stimulant effect of the compounds according to the present invention as determined by tests of locomotory activity with mice and stereotypy with rats.
# [3] = test system: central nervous system; assay: Locomotory activity of mice (registered with instrument "Animex"); assay type: in vivo, white male mice; settings: for ED200: Mus musculus, dose causing two-fold potentiation of locomotory activity, read-out: ED200 (locomotion)
# Description: as §1, §2
# (1) effect of the compounds on the locomotory activity of the animals (locomotory activity is registered using the instrument "Animex");
# as §3, §4, §5
# [4] = test system: mice; settings: statement on known psychostimulant compounds; cited from earlier work
# [5] = Solubility; assay type: physicochemical
SMILES,ED50 [2] [µmol/kg],ED200 [3] [µmol/kg],"phenomenon of ""group toxicity"" (known psychostimulant compounds) [4]",also measured
"CC(Cc1ccccc1)[n+]1cc([N-]C(=O)Nc2ccccc2)on1 (racemic) [dl-N-phenylcarbamoyl-3-(α-methyl-β-phenylethyl) sydnonimine, reference compound]",107,72.6,–,psychostimulant activity (known compound) [1]: possesses a psychostimulant activity
"CC(Cc1ccccc1)[n+]1cc([N-]C(=O)Nc2ccc(Cl)cc2)on1 (racemic) [Example 4, dl-N-para-chlorophenyl carbamoyl-3-(α-methyl-β-phenylethyl) sydnonimine]",20,18.2,–,–
Cc1cccc(NC(=O)[N-]c2c[n+](C(C)Cc3ccccc3)no2)c1 (racemic) [X is NH--C6 H4 --CH3 --meta],39.9,32.3,–,–
C[C@H](N)Cc1ccccc1 [dextramphetamine],–,–,characteristic,–
CC(N)Cc1ccccc1 (centres unmarked) [amphetamine],–,–,characteristic,–
"C[C@H](Cc1ccccc1)[n+]1cc([N-]C(=O)Nc2ccccc2)on1 [Example 3, l-3-(α-methyl-β-phenylethyl)-N-phenylcarbamoylsydnonimine]",–,–,–,solubility in acetone ([5]; acetone): soluble; solubility in chloroform ([5]; chloroform): soluble; solubility in fats ([5]; fats): soluble; solubility in water ([5]; water): substantially insoluble in water; duration for which maximum locomotory activity is maintained ([3]; dose of 40 mcM/kg): 1 to 1.5 h

# From patent publication US4245100A, “Sydnonimine N-acyl derivatives and method for preparing same” (Vsesojuzny nauchno-issledovatelsky khimikofarmatsevtichesky …, priority 1977, dated 1981)
